Our source for the Ki and IC50 values is ChEMBL document CHEMBL4765292, “Flexible diaminodihydrotriazine inhibitors of Plasmodium falciparum dihydrofolate reductase: Binding strengths, modes of binding and their antimalarial activities” (Eur J Med Chem, 2020).

The nature of assay [1]: Inhibition of Plasmodium falciparum DHFR expressed in Escherichia coli BL21 using DHF as substrate by spectrophotometric analysis.
Assay [2] is described as follows: Inhibition of Plasmodium falciparum DHFR A16V/S108T mutant expressed in Escherichia coli BL21 using DHF as substrate by spectrophotometric analysis.
The nature of assay [3]: Inhibition of Plasmodium falciparum DHFR […] mutant expressed in Escherichia coli BL21 using DHF as substrate by spectrophotometric analysis.
Assay [4] is described as follows: Inhibition of Plasmodium falciparum DHFR N51I/C59R/S108N mutant expressed in Escherichia coli BL21 using DHF as substrate by spectrophotometric analysis.
Assay [5] in a line: Inhibition of Plasmodium falciparum DHFR C59R/S108N/I164L mutant expressed in Escherichia coli BL21 using DHF as substrate by spectrophotometric analysis.
Assay [6] in a line: Inhibition of Plasmodium falciparum DHFR N51I/C59R/S108N/I164L mutant expressed in Escherichia coli BL21 using DHF as substrate by spectrophotometric analysis.
Assay [7] deals with Plasmodium falciparum. Briefly: Antimalarial activity against Plasmodium falciparum TM4/8.2 infected in human erythrocytes assessed as reduction in [3H]-hypoxanthine incorporation pretreated for 20 hrs followed by [3H]-hypoxanthine addition measured after 20 hrs by radioactivity method. The format is functional, organism-based.
The test system of assay [8] is Plasmodium falciparum. Nature of the assay: Antimalarial activity against Plasmodium falciparum K1CB1 harboring DHFR […] mutant infected in human erythrocytes assessed as reduction in [3H]-hypoxanthine incorporation pretreated for 20 hrs followed by [3H]-hypoxanthine addition measured after 20 hrs by radioactivity method. The format is functional, organism-based. The settings on record: K1CB1, Erythrocyte.

The subject of assay [9] is Plasmodium falciparum. Briefly: Antimalarial activity against Plasmodium falciparum W2 harboring DHFR N51I/C59R/S108N mutant infected in human erythrocytes assessed as reduction in [3H]-hypoxanthine incorporation pretreated for 20 hrs followed by [3H]-hypoxanthine addition measured after 20 hrs by radioactivity method. In kind it is functional, organism-based. The note with it: W2, Erythrocyte.

Assay [10] relates to Plasmodium falciparum. Briefly: Antimalarial activity against Plasmodium falciparum CsI-2 harboring DHFR C59R/S108N/I164L mutant infected in human erythrocytes assessed as reduction in [3H]-hypoxanthine incorporation pretreated for 20 hrs followed by [3H]-hypoxanthine addition measured after 20 hrs by radioactivity method. The format is functional, organism-based. The note with it: CsI-2, Erythrocyte.

The test system of assay [11] is Plasmodium falciparum. Briefly: Antimalarial activity against Plasmodium falciparum V1/S harboring DHFR N51I/C59R/S108N/I164L mutant infected in human erythrocytes assessed as reduction in [3H]-hypoxanthine incorporation pretreated for 20 hrs followed by [3H]-hypoxanthine addition measured after 20 hrs by radioactivity method. The format is functional, organism-based. The settings on record: Erythrocyte.

Assay [12] has as its system Plasmodium falciparum. Briefly: Antimalarial activity against Plasmodium falciparum T9/94 RC17 harboring DHFR A16V/S108T mutant infected in human erythrocytes assessed as reduction in [3H]-hypoxanthine incorporation pretreated for 20 hrs followed by [3H]-hypoxanthine addition measured after 20 hrs by radioactivity method. In kind it is functional, organism-based. The note with it: T9/94 RC17, Erythrocyte.

Usually Ki stands for the equilibrium dissociation constant of an inhibitor or competing ligand from its target. A high value points to a looser hold on the target. Usually IC50 stands for the point on the concentration scale where inhibition reaches its midpoint. In the case of `CCN(CCCON1C(N)=NC(N)=NC1(C)C)c1ccc(Cl)c(Cl)c1`, the Ki in assay [1] is 1.4 nM; in [2] it was 2.8 nM; in [3], 2.1 nM; in [4], 2 nM; in assay [5] it was 2.2 nM; in [6] it was 3.9 nM. Besides, the IC50 came to 26 nM in the assay on Plasmodium falciparum [7]; 35 nM with Plasmodium falciparum [8]; 71 nM in the assay on Plasmodium falciparum [9]; 0.046 µM in the assay on Plasmodium falciparum [10]; 2.9 µM in the assay on Plasmodium falciparum [11].
Regarding `CC1(C)N=C(N)N=C(N)N1OCCCNC(=O)c1ccccc1`, the Ki in assay [1] was determined as 1.4 nM; in assay [2], 14.7 nM; in assay [3] it was 2.6 nM; in [4] it was 2.6 nM; in assay [5], 6.9 nM; in [6], 13.8 nM. Further, the IC50 in the assay on Plasmodium falciparum [7] came to 29 nM; in the assay on Plasmodium falciparum [12] it was 40 nM; with Plasmodium falciparum [8] it was 230 nM; with Plasmodium falciparum [9], 230 nM; with Plasmodium falciparum [10], 2.4 µM; with Plasmodium falciparum [11] it was 5.4 µM.
Consider `CC1(C)N=C(N)N=C(N)N1OCCNS(=O)(=O)c1ccccc1`, for which the Ki turned out to be 2.7 nM in assay [1]; 215 nM in [2]; 4.8 nM in assay [3]; 5.8 nM in assay [4]; 169 nM in assay [5]; 234 nM in [6]. Also, the IC50 with Plasmodium falciparum [7] came to 4400 nM; with Plasmodium falciparum [12], 15000 nM; with Plasmodium falciparum [8] it was 10000 nM; with Plasmodium falciparum [9], 26000 nM; in the assay with Plasmodium falciparum [10] it was 76.5 µM; with Plasmodium falciparum [11] it was 77.4 µM.
As for `CC1(C)N=C(N)N=C(N)N1OCCCN(Cc1ccccc1)Cc1ccccc1`, the Ki in assay [1] stood at 1.5 nM; in assay [2], 6.3 nM; in assay [3], 2.9 nM; in assay [4], 3.1 nM; in assay [5] it was 3.1 nM; in assay [6], 5.4 nM. In addition, the IC50 in the assay with Plasmodium falciparum [7] was 22 nM; in the assay on Plasmodium falciparum [12] it was 25 nM; in the assay on Plasmodium falciparum [8], 350 nM; in the assay on Plasmodium falciparum [9], 500 nM; in the assay with Plasmodium falciparum [10], 0.5 µM; in the assay with Plasmodium falciparum [11], 5.4 µM.
For `NC1=NC(c2ccccc2)N(OCCc2ccccc2)C(N)=N1` (stereo not drawn), the inhibition constant (Ki) amounted to 1.4 nM in assay [1]; 8.3 nM in [2]; 3.3 nM in [3]; 4.1 nM in [4]; 13 nM in assay [5]; 14 nM in [6]. Besides, the IC50 in the assay with Plasmodium falciparum [7] stood at 80 nM; in the assay with Plasmodium falciparum [12] it was 3.1 nM; in the assay with Plasmodium falciparum [8], 16200 nM; with Plasmodium falciparum [9], 16800 nM; in the assay on Plasmodium falciparum [10], 20.5 µM; in the assay on Plasmodium falciparum [11], 24.7 µM.
As for `NC1=NC(c2ccccc2)N(OCCCc2ccccc2)C(N)=N1` (stereo not drawn), the Ki is 2.2 nM in assay [1]; 7 nM in assay [2]; 0.9 nM in [3]; 0.6 nM in assay [4]; 3.2 nM in [5]; 3.6 nM in assay [6]. Besides, the IC50 in the assay on Plasmodium falciparum [7] was determined as 20 nM; in the assay on Plasmodium falciparum [12], 0.52 nM; in the assay with Plasmodium falciparum [8] it was 190 nM; in the assay on Plasmodium falciparum [9], 130 nM; in the assay on Plasmodium falciparum [10] it was 4.5 µM; in the assay with Plasmodium falciparum [11], 4.8 µM.
With `CC1(C)N=C(N)N=C(N)N1OCCCSC1CCCCC1`, the Ki in assay [1] was found to be 0.6 nM; in [2], 3 nM; in assay [3], 1.1 nM; in assay [4] it was 0.8 nM; in assay [5] it was 1.5 nM; in assay [6], 1.4 nM. Moreover, the IC50 in the assay with Plasmodium falciparum [7] was 3.3 nM; in the assay on Plasmodium falciparum [12] it was 6.9 nM; in the assay with Plasmodium falciparum [8] it was 260 nM; with Plasmodium falciparum [9], 190 nM; in the assay with Plasmodium falciparum [10], 0.26 µM; with Plasmodium falciparum [11], 3.5 µM.
Take `CC1(C)N=C(N)N=C(N)N1OCC(=O)NCc1ccc(Cl)cc1`: the Ki turned out to be 1.7 nM in [1]; 72.2 nM in [2]; 3.6 nM in [3]; 4.3 nM in assay [4]; 13 nM in assay [5]; 16.3 nM in [6]. For the same compound, the IC50 with Plasmodium falciparum [7] came to 2400 nM; in the assay with Plasmodium falciparum [12], 430 nM; in the assay on Plasmodium falciparum [8], 530 nM; with Plasmodium falciparum [9], 2500 nM; with Plasmodium falciparum [10] it was 3.6 µM; in the assay with Plasmodium falciparum [11] it was 11 µM.
Regarding `CC1(C)N=C(N)N=C(N)N1OCCNS(=O)(=O)c1ccc(Cl)cc1`, the Ki in assay [1] was found to be 1.3 nM; in assay [2], 133 nM; in assay [3], 4.7 nM; in assay [4] it was 10.2 nM; in [5] it was 114 nM; in assay [6], 127 nM. The IC50 is 1200 nM with Plasmodium falciparum [7]; 3800 nM with Plasmodium falciparum [12]; 5900 nM in the assay with Plasmodium falciparum [8]; 12700 nM in the assay with Plasmodium falciparum [9]; 25.3 µM in the assay on Plasmodium falciparum [10]; above 50 µM with Plasmodium falciparum [11].
Take `Cc1ccc(S(=O)(=O)NCCCON2C(N)=NC(N)=NC2(C)C)cc1`: the Ki in [1] worked out at 1 nM; in assay [2], 186 nM; in [3], 4 nM; in assay [4], 7.5 nM; in [5], 73 nM; in assay [6], 143 nM. Besides, the IC50 is 440 nM with Plasmodium falciparum [7]; 3900 nM in the assay on Plasmodium falciparum [12]; 9600 nM in the assay on Plasmodium falciparum [8]; 15100 nM in the assay with Plasmodium falciparum [9]; 31.2 µM in the assay on Plasmodium falciparum [10]; 23.5 µM with Plasmodium falciparum [11].
As for `CC1(C)N=C(N)N=C(N)N1OCCCN(Cc1ccccc1)c1ccc(Cl)cc1`, the Ki in assay [1] stood at 0.6 nM; in [2] it was 6.1 nM; in assay [3], 0.8 nM; in [4], 1.1 nM; in [5], 2.3 nM; in assay [6], 2 nM. The IC50 in the assay with Plasmodium falciparum [7] stood at 31 nM; with Plasmodium falciparum [12] it was 49 nM; in the assay with Plasmodium falciparum [8], 400 nM; in the assay with Plasmodium falciparum [9], 510 nM; in the assay on Plasmodium falciparum [10], 3.1 µM; in the assay with Plasmodium falciparum [11] it was 3.6 µM.
For `CC1(C)N=C(N)N=C(N)N1OCCCN(Cc1ccccc1)c1ccc(Cl)c(Cl)c1`, the Ki worked out at 1 nM in assay [1]; 5.3 nM in assay [2]; 1.6 nM in [3]; 1.2 nM in assay [4]; 2.7 nM in assay [5]; 1.7 nM in assay [6]. The IC50 came to 150 nM with Plasmodium falciparum [7]; 290 nM in the assay on Plasmodium falciparum [12]; 2300 nM in the assay on Plasmodium falciparum [8]; 2100 nM in the assay with Plasmodium falciparum [9]; 5 µM in the assay with Plasmodium falciparum [10]; 5.3 µM with Plasmodium falciparum [11].
Regarding `CC1(C)N=C(N)N=C(N)N1OCCCCOCc1ccccc1`, the Ki in assay [1] came to 1 nM; in assay [2], 10.5 nM; in [3] it was 2.5 nM; in [4] it was 2.9 nM; in [5], 12.2 nM; in assay [6] it was 18.2 nM. Besides, the IC50 in the assay with Plasmodium falciparum [7] stood at 400 nM; in the assay on Plasmodium falciparum [8], 2400 nM; in the assay on Plasmodium falciparum [9], 3200 nM; in the assay on Plasmodium falciparum [10], 4.8 µM; in the assay on Plasmodium falciparum [11], 20.8 µM.
Take `CC1(C)N=C(N)N=C(N)N1OCc1ccccc1`: the Ki in [1] is 0.4 nM; in assay [2], 46 nM; in [3] it was 2.8 nM; in assay [4], 5.9 nM; in assay [5] it was 30 nM; in assay [6], 45 nM. Also, the IC50 in the assay with Plasmodium falciparum [7] was 2670 nM; in the assay with Plasmodium falciparum [8] it was 1800 nM; with Plasmodium falciparum [9] it was 4500 nM; in the assay with Plasmodium falciparum [10], 47.6 µM; in the assay with Plasmodium falciparum [11] it was above 100 µM.
Take `CC1(C)N=C(N)N=C(N)N1OCCCOCc1ccccc1`: the inhibition constant Ki in assay [1] turned out to be 0.6 nM; in [2] it was 5.3 nM; in assay [3] it was 1.3 nM; in assay [4] it was 1.2 nM; in assay [5], 4.2 nM; in assay [6] it was 4.1 nM. Further, the IC50 was 14 nM in the assay on Plasmodium falciparum [7]; 48 nM with Plasmodium falciparum [8]; 51 nM in the assay on Plasmodium falciparum [9]; 0.4 µM in the assay on Plasmodium falciparum [10]; 1.21 µM with Plasmodium falciparum [11].
As to `CC1(C)N=C(N)N=C(N)N1OCCCNc1ccccc1`, the Ki is 0.6 nM in [1]; 5.7 nM in assay [2]; 0.8 nM in [3]; 1.1 nM in assay [4]; 1.8 nM in assay [5]; 4.8 nM in [6]. The IC50 with Plasmodium falciparum [7] amounted to 1850 nM; with Plasmodium falciparum [8] it was 240 nM; in the assay with Plasmodium falciparum [9], 300 nM; in the assay with Plasmodium falciparum [10], 3.2 µM; in the assay with Plasmodium falciparum [11], 2.3 µM.
On to `CC1(C)N=C(N)N=C(N)N1OCCOc1cc(Cl)c(Cl)cc1Cl`, for which the inhibitory constant (Ki) amounted to 1 nM in assay [1]; 6.1 nM in [2]; 1.2 nM in assay [3]; 2.2 nM in assay [4]; 11 nM in assay [5]; 16 nM in [6]. The IC50 amounted to 750 nM in the assay with Plasmodium falciparum [7]; 490 nM with Plasmodium falciparum [8]; 3010 nM in the assay with Plasmodium falciparum [9]; 3.3 µM in the assay with Plasmodium falciparum [10]; 11.5 µM in the assay with Plasmodium falciparum [11].
